Reference: US7632972B2, “Compounds and methods for treatment of cancer and modulation of programmed cell death for melanoma and other cancer cells” (The Board of Trustees of the University of Illionis, priority 2003, dated 2009)
Like-named read-outs stand apart in the source and are kept apart here.

Legend:
U-937 cell line = test: Death induction by amide library, MTS dye reduction; assay type: cell-based, human; conditions: Homo sapiens
Description: Compounds were tested in a U937 cell assay as previously described by Hergenrother et al. (see Hergenrother 2003 and U.S. 60/516,566).
The ability of the 100 amides thus produced to induce death in cancer cells was assessed by an assay based on the reduction of the MTS (3-(4,5-dimethylthiazol-2-yl)-5-(3-carboxymethoxyphenyl)-2-(4-sulfophenyl)-2H-tetrazolium, inner salt) dye. This tetrazolium dye is rapidly converted to the formazan product by living cells, and therefore provides a sensitive readout of cell life or death that can be monitored at 490 nm.

U-937 cells [1] = test: cells; assay type: cell-based, human; conditions: Homo sapiens; Table 13, U-937
UACC-62 = test: Death induction in melanoma cell line; assay type: cell-based, human; conditions: Homo sapiens; Table 13, UACC-62 melanoma; read-out: UACC-62
Description: (§1) Given the interesting and somewhat unusual trait of G1 arrest, compounds x and y were tested for their ability to induce death in two melanoma cell lines: UACC-62 (human), and B16-F10 (mouse). […] Compounds x and y were also submitted for testing in the NCl 60-cell line assay. […] The triphenylamides (TPAs) induce apoptosis in these melanoma cell lines.

B16-F10 = test: Death induction in melanoma cell line; assay type: cell-based, mouse; conditions: Mus musculus, B16-F10; Table 13, B16F10 melanoma; read-out: B16F10
Description: as §1

human bone marrow cells = test: Toxicity to bone marrow cells of a healthy donor, MTS bioreduction after 72 hours; assay type: cell-based; conditions: Bone marrow cell, Table 13, bone marrow cells of healthy donor
Description: Specificity for cancer cells. The vast majority of anti-cancer drugs are toxic to all rapidly dividing cell types, often leading to deleterious side effects and a reduced therapeutic window. For instance, hematopoietic bone marrow is responsible for the production of red and white blood cells, and the anemia observed upon treatment with certain chemotherapy agents is in a large part due to the toxicity of the anti-cancer drugs on cells in the human bone marrow. Thus, to determine the relative effect of the triphenylamides on melanoma versus normal cells, cells derived from the human bone marrow of a healthy donor were used; measurement of the effect on healthy bone marrow cells can assist in assessing the toxicity of putative anti-cancer agents. (17-20) These cells were treated with increasing concentrations of the compounds shown in Table 13, and cell viability was evaluated after 72 hours using the MTS bioreduction assay. The data in Table 13 indicate that several of the triphenyl amides have selective toxicity to melanoma cells versus the human bone marrow cells.

HL-60 cells = test: Determination of IC50 values, cell death by MTS/PMS after 72 h; conditions: Homo sapiens, HL-60, read-out: HL-60
Description: General Cell Culture Conditions: U-937 and HL-60 cell lines were grown in RPMI 1640 supplemented with 10% FBS and incubated at 37° C. in a 5% CO2, 95% air atmosphere and were split every two to three days as necessary.
Cells were then resuspended in RPMI 1640+10% FBS, counted using a hemocytometer and diluted so that 10,000 cells were seeded in to each well of a Corning 96-well flat bottom microtiter plate (Fisher, Chicago Ill.). Media was then added to bring the total volume of each well to 100 μL. Each compound was weighed and then diluted with EtOH to make a 100 mM stock solution. The compounds were added at 9 or more different concentration in 1 μL of EtOH. After a 72 h incubation (37° C. in a 5% CO2, 95% air atmosphere) cell death was quantitated by addition of 20 μL of the MTS/PMS CellTiter 96 Cell Proliferation Assay reagent (Promega, Madison Wis.) to each well. The plates were incubated at 37° C. for approximately 1 hour until the colored product formed and the absorbance was then measured at 490 nm in a Spectra Max Plus 384 plate reader (Molecular Devices, Sunnyvale Calif.). The IC50 was taken as the concentration that caused 50% cell death.

U-937 cells [2] = test: High-throughput cell death assay on library members (MTS/PMS); assay type: cell-based, human; conditions: library members at 100 μM, 24 hours
Description: A three-tiered system was devised to identify compounds that selectively induce apoptosis in cancer cells. First, all compounds were screened at 100 μM in a high-throughput manner for their ability to induce death in two cancer cell lines, HL-60 (leukemia) and U-937 (lymphoma).
Test compounds were transferred into the wells using a 96-pin transfer apparatus (V & P Scientific, San Diego Calif.) that transfers 0.2 μL of compound. The compounds were made up as 50 mM stock solutions in 100% EtOH, so one transfer gave a final concentration of 100 μM. Controls were performed in which only EtOH (containing no compound) was pin-transferred into wells containing cells. The cells were incubated with the compounds for 24 hours, and then cell death was quantitated.

in vitro = assay type: cell-based, human; conditions: human
U-937 cells [3] = test: Analysis of mitochondria depolarization by flow cytometry (JC-9 dye); assay type: cell-based, human
Description: Further experiments assessed whether the observed death from 12-D, 13-D, and 15-D was due to apoptosis or necrosis.
Analysis of Mitochondria Depolarization by Flow Cytometry: The depolarization of the mitochondrial membrane was measured by the fluorescence emitted by the JC-9 dye (Molecular Probes, Eugene Oreg.). 100 μM of 13-D or 10 μM etoposide in 1 μL of EtOH were added to cell culture flasks containing 50 mL of 10×10^6 U-937 cells/mL. […] 10 μg of the JC-9 dye was added to 1×10^6 cells in 1 mL and incubated at room temperature for 10 min. Cells were washed twice with PBS and resuspended in a final volume of 500 μL PBS. The fluorescence intensity of each cell was determined by flow cytometry at 525 nm (channel 1 green) and 675 nm (channel 4 red). 50,000 cells were analyzed in each experiment. The data was then analyzed using Summit Software (Cytomation, Fort Collins Colo.) and the number of cells within the upper left region, viable cells, was determined.
Apoptotic assays. To determine whether the observed death was due to apoptosis or necrosis, several apoptotic hallmarks were examined. Thus early stage (mitochondrial membrane depolarization), middle stage (caspase-3 like activation, PARP-1 cleavage) and late stage (chromatin condensation, phosphatidylserine exposure, membrane blebbing) biochemical events were monitored. The depolarization of mitochondrial membranes facilitates the release of pro-apoptotic proteins such as cytochrome c and AIF (apoptosis inducing factor) from the mitochondria into the cytosol. Several dyes, including JC-9, have been developed that provide a sensitive readout on this process. […] The release of pro-apoptotic stimuli from the mitochondria initiates a cascade of events that ultimately results in the activation of the “executioner” caspases, typically caspase-3 and caspase-7. The caspase-3-like activity of the cells can be monitored with peptidic substrates. […] PARP-1 cleavage. A final event in apoptosis is the exposure of phosphatidylserine on the outer leaflet of the cell membrane; this event allows for recognition of apoptotic cells by phagocytes, ultimately leading to the engulfment of the apoptotic cell and the recycling of the various cellular components.

[4] = test system: etoposide induced apoptosis; test: Inhibition of etoposide induced apoptosis; assay type: cell-based
[5] = U-937, hit compounds of first generation library, read-out: IC50 Value-U-937 cells

Row | Compound | IC50 (U-937 cells [1]) [nM] | IC50 (UACC-62) [nM] | IC50 (B16-F10) [nM] | IC50 (human bone marrow cells) [nM] | IC50 (HL-60 cells) [nM] | Induction of death in U-937 cells (percentages of cell death) (U-937 cells [2]) [%] | other results
1 | COc1cccc(/C=C/C(=O)Nc2cc(OC)c(OC)c(OC)c2)c1 |  |  |  |  |  |  | IC50 (U-937 cell line; [5]): 8000 nM
2 | CCCCCCCCCCCCCCCC(=O)N(C)C(C)C(O)c1ccccc1 (centres unmarked) |  |  |  |  |  |  | IC50 (U-937 cell line; U-937, read-out: IC50 Value-U-937 cells): 3100 nM
3 | COc1ccc(/C=C/C(=O)NC23CC4CC(CC(C4)C2)C3)c2ccccc12 |  |  |  |  |  |  | IC50 (U-937 cell line; [5]): 7100 nM
4 | O=C(NC1CCCc2ccccc21)C(c1ccccc1)(c1ccccc1)c1ccccc1 (centres unmarked) | 1250 | 1770 | 980 | 500 | 2210 |  | 
5 | O=C(NC1C2CC3CC(C2)CC1C3)C(c1ccccc1)(c1ccccc1)c1ccccc1 (centres unmarked) | 490 | 15300 | 7410 | 320 | 920 |  | 
6 | O=C(CC(c1ccccc1)(c1ccccc1)c1ccccc1)NCCc1cccnc1 | 930 | 700 | 1610 | 680 | 1390 |  | 
7 | COc1ccc(CNC(=O)C(c2ccccc2)(c2ccccc2)c2ccccc2)cc1 | 8160 | 690 | 600 | 4770 | 10500 |  | 
8 | CC(=O)OC(CNC(=O)C(c1ccccc1)(c1ccccc1)c1ccccc1)c1ccccc1 (centres unmarked) | 10800 | 620 | 800 | 4000 | 16200 |  | 
9 | COc1ccc(CNC(=O)CC(c2ccccc2)(c2ccccc2)c2ccccc2)c(OC)c1 | 7170 | 520 | 550 | 1870 | 2260 |  | 
10 | COc1cc(/C=C/C(=O)NC[C@@H](O)c2ccccc2)ccc1O (stereo in doubt) [Compound 12-D, 3-(4-Hydroxy-3-methoxy-phenyl)-N-(2-hydroxy-2-phenyl-ethyl)-acrylamide] |  |  |  |  |  | 82 | IC50 at 72 h (in vitro): 61000 nM; observed death due to apoptosis or necrosis (U-937 cells [3]): induced some apoptosis, some necrosis
11 | COc1cc(/C=C/C(=O)NC[C@@H](OC)c2ccc(O)cc2)ccc1O [Compound 9-D, 3-(4-Hydroxy-3-(S)-methoxy-phenyl)-N-[2-(4-hydroxy-phenyl)-2-methoxy-ethyl]-acrylamide] |  |  |  |  |  | 20 | IC50 at 72 h (in vitro): 273000 nM; activity in assays exploring inhibition of etoposide induced apoptosis [4]: Neither compound 1 nor any library members showed activity
12 | COc1cc(/C=C/C(=O)NC[C@H](O)c2ccc(O)cc2)ccc1O [Compound 15-D, N-[2-(R)-Hydroxy-2-(4-hydroxy-phenyl)-ethyl]-3-(4-hydroxy-3-methoxy-phenyl)-acrylamide] |  |  |  |  |  | 89 | IC50 at 72 h (in vitro): 109000 nM; observed death due to apoptosis or necrosis (U-937 cells [3]): induced some apoptosis, some necrosis
13 | COc1cc(/C=C/C(=O)NCCc2ccc(O)cc2)ccc1O [Compound 17-D] |  |  |  |  |  | 58 | 
14 | COc1ccc(/C=C/C(=O)NCCc2ccc(O)cc2)cc1O [Compound 17-E] |  |  |  |  |  | 18 | 
15 | COc1cc(/C=C/C(=O)NCCc2ccc(O)cc2)cc(OC)c1OC [Compound 17-F] |  |  |  |  |  | 9 | 
16 | COc1cc(/C=C/C(=O)NCCc2ccc(O)cc2)cc(OC)c1O [Compound 17-G] |  |  |  |  |  | 26 | 
17 | COc1cccc(/C=C/C(=O)NCCc2ccc(O)cc2)c1 [Compound 17-H] |  |  |  |  |  | 41 | 
